Experimental data: patent US20220133846A1, “NOVEL ANTIMICROBIAL COMPOUND AND USES THEREOF” (priority 2019, published 2022)
≈ marks a conversion by molar mass, not a printed value. Where “and” joins values, the source holds several entries; their conditions need not be identical. Equal entries are not always repeated. Where two headings read alike, the source gives them in different places.

Columns and labels:
Acinetobacter guillouiae = test: MIC against clinical isolates (Christiana Hospital); format: cell-based; conditions: clinical strain CH42, drug resistance N
Acinetobacter ursingii = test: as above; format: cell-based; conditions: clinical strain CH41, drug resistance N
Acinetobacter septicus = test: as above; format: cell-based; conditions: clinical strain CH44, drug resistance N
Acinetobacter modestus = test: as above; format: cell-based; conditions: clinical strain CH43, drug resistance N
A. baumannii (CH-46) = test: Frequency of resistance (FoR) in vitro; format: cell-based
[1] = system: Acinetobacter calcoaceticus; test: MIC against clinical isolates (Christiana Hospital); format: cell-based; conditions: clinical strain CH37, drug resistance N
Acinetobacter baumannii [2] = system: Acinetobacter baumannii
Acinetobacter baumannii [3] = test: microbe, parasite or virus in culture
[4] = system: S. aureus NRS 384 (USA300-0114); test: Murine neutropenic thigh infection model; format: in vivo, mice; conditions: 25 mg/kg, both studies
[5] = system: S. aureus (SA) and MRSA biofilms; format: cell-based
[6] = system: broad spectrum of Gram-positive bacteria; conditions: cited from earlier work
S. aureus = test: Prevention of biofilm formation by pre-coating wells; format: cell-based; conditions: data not shown

## Colistin
Acinetobacter guillouiae
  MIC: 3.91 µg/mL
Acinetobacter ursingii
  MIC: 1.95 µg/mL
Acinetobacter septicus
  MIC: 1.95 µg/mL
Acinetobacter modestus
  MIC: 7.81 µg/mL
A. baumannii (CH-46); 2X MIC
  Frequency of resistance (FoR): 2.7 × 10^−7
A. baumannii (CH-46); 3X MIC
  Frequency of resistance (FoR): 3.7 × 10^−8
A. baumannii (CH-46); 4X MIC
  Frequency of resistance (FoR): 5.2 × 10^−8
A. baumannii (CH-46); 5X MIC
  Frequency of resistance (FoR): 5.4 × 10^−8
A. baumannii (CH-46); 10X MIC
  Frequency of resistance (FoR): 2.0 × 10^−9
[1]
  MIC: 3.91 µg/mL
Acinetobacter baumannii [2]
  MIC: 3.91 µg/mL and 5.86 µg/mL and 7.81 µg/mL

## C[C@@H](O)[C@H]1C(=O)N2C(C(=O)O)=C(SCCN=CN)C[C@H]12 [Imipenem]
Acinetobacter guillouiae; Acinetobacter guillouiae, read-out: MIC
  MIC: 7.81 µg/mL (≈ 26.1 µM)
Acinetobacter ursingii; Acinetobacter ursingii, read-out: MIC
  MIC: 1 µg/mL (≈ 3.34 µM)
Acinetobacter septicus; Acinetobacter septicus, read-out: MIC
  MIC: 1.46 µg/mL (≈ 4.88 µM)
Acinetobacter modestus; Acinetobacter modestus, read-out: MIC
  MIC: 0.5 µg/mL (≈ 1.67 µM)
[1]; Acinetobacter calcoaceticus, read-out: MIC
  MIC: 0.5 µg/mL (≈ 1.67 µM)
Acinetobacter baumannii [3]; clinical strain CH36, drug resistance N
  MIC: 250 µg/mL (≈ 835 µM)
Acinetobacter baumannii [3]; clinical strain CH38, drug resistance N
  MIC: 125 µg/mL (≈ 418 µM)
Acinetobacter baumannii [3]; clinical strain CH39, drug resistance N
  MIC: 15.6 µg/mL (≈ 52.2 µM)
Acinetobacter baumannii [3]; clinical strain CH40, drug resistance N
  MIC: 31.2 µg/mL (≈ 104 µM)
Acinetobacter baumannii [3]; clinical strain CH45, drug resistance Y
  MIC: 125 µg/mL (≈ 418 µM)
Acinetobacter baumannii [3]; clinical strain CH46, drug resistance Y
  MIC: 250 µg/mL (≈ 835 µM)
Acinetobacter baumannii [3]; clinical strain CH47, drug resistance Y
  MIC: 3.91 µg/mL (≈ 13.1 µM)
Acinetobacter baumannii [3]; clinical strain CH48, drug resistance Y
  MIC: 7.81 µg/mL (≈ 26.1 µM)
Acinetobacter baumannii [3]; clinical strain CH49, drug resistance Y
  MIC: 62.5 µg/mL (≈ 209 µM)
Acinetobacter baumannii [3]; clinical strain CH50, drug resistance Y
  MIC: 62.5 µg/mL (≈ 209 µM)
Acinetobacter baumannii [3]; clinical strain CH51, drug resistance Y
  MIC: 31.2 µg/mL (≈ 104 µM)
Acinetobacter baumannii [3]; clinical strain CH52, drug resistance Y
  MIC: 31.2 µg/mL (≈ 104 µM)
Acinetobacter baumannii [3]; clinical strain CH53, drug resistance Y
  MIC: 31.2 µg/mL (≈ 104 µM)
Acinetobacter baumannii [3]; clinical strain CH54, drug resistance Y
  MIC: 7.81 µg/mL (≈ 26.1 µM)
Acinetobacter baumannii [3]; clinical strain CH55, drug resistance Y
  MIC: 46.9 µg/mL (≈ 157 µM)

## CN[C@H](CC(C)C)C(=O)N[C@H]1C(=O)N[C@@H](CC(N)=O)C(=O)N[C@H]2C(=O)N[C@H]3C(=O)N[C@H](C(=O)N[C@H](C(=O)O)c4cc(O)cc(O)c4-c4cc3ccc4O)[C@H](O)c3ccc(c(Cl)c3)Oc3cc2cc(c3O[C@@H]2O[C@H](CO)[C@@H](O)[C@H](O)[C@H]2O[C@H]2C[C@](C)(N)[C@H](O)[C@H](C)O2)Oc2ccc(cc2Cl)[C@H]1O [vancomycin, reference compound]
[4]
  Bacterial load relative to pre-treatment levels: reduced bacterial load to or below pre-treatment levels
[5]
  Effect on viability of pre-formed biofilm: not effective

## C=C1NC(=O)CC[C@@H](C(=O)O)NC(=O)[C@H](NC(=O)[C@H](CCCCN)NC(=O)[C@@H](N)Cc2c[nH]c3ccccc23)CSC[C@@H](C(=O)N[C@@H]2C(=O)N3CCC[C@H]3C(=O)NCC(=O)N[C@H](C(=O)N[C@H](C(=O)N[C@@H]3C(=O)NCC(=O)N[C@@H](C)C(=O)N[C@@H](CC(C)C)C(=O)N[C@@H](CCC(N)=O)C(=O)N/C(=C/C)C(=O)N[C@H](C(=O)N[C@@H](Cc4ccccc4)C(=O)N[C@@H](CC(C)C)C(=O)N[C@@H](CCC(N)=O)C(=O)N[C@@H]4C(=O)N[C@@H](CC(C)C)C(=O)N[C@H]5C(=O)N[C@@H](CSC4C)C(=O)NC(=O)[C@H](CC(N)=O)N[C@H](C(=O)N[C@@H](CCCCN)C(=O)N[C@H](C(=O)NC(=C)C(=O)N[C@@H](CCCCN)C(=O)O)[C@@H](C)CC)CSC5C)CSC3C)C(C)C)CSC2C)N[C@@H](CC(C)C)C(=O)NC1=O (some centres unmarked) [subtilin]
[6]
  Antimicrobial activity: nanomolar range

B1: platelet factor 4: a control cationic peptide (protein, UniProt P02776 32-101, looked up)
Platelet factor 4: EAEEDGDLQCLCVKTTSQVRPRHITSLEVIKAGPHCPTAQLIATLKNGRKICLDLQAPLYKKIIKKLLES
S. aureus
  Effect of coating wells on S. aureus attachment: no effect
